Source: US10144914B2, “Modified substrates for protection of peptide-immobilized surfaces from gamma radiation degradation” (Corning Incorporated, priority 2010, dated 2018)

Legend:
[1] = Solubility of individual coating components in water, ethanol and 1M HCl; type: physicochemical
Experimental: iii) Preparation of Antioxidant/Stabilizer Formulations: Prior to preparation of the antioxidant/stabilizer coating formulation, solubility of the individual components of each formulation was determined in water, ethanol and 1M HCl. Majority of the components were soluble in water, except for two in ethanol and one in 1M HCl. Both n-propyl gallate and Trolox were soluble in ethanol and only L-Tryptophan in 1M HCl. For each individual coating mixture formulation (i.e. Coatings 1-8), in a separate 25 mL glass vial containing the different components individually weighed out based on their respective wt % (see Table 1, below), Coating 1: 22 ml of solvent was used to make the coating solution (i.e. 20 mL of DI/water+2 ml of ethanol); Coating 2: 20 mL of DI/water added to vial; Coating 3: 18 mL of DI/water added+2 mL of ethanol to vial; Coating 4: 20 mL of DI/water+2 mL of ethanol; Coating 5: 16 mL of DI/water+4 mL of 1M HCl; Coating 6: 12 mL of DI/water+2 mL of ethanol+4 mL of 1M HCl; Coating 7: 20 mL of DI/water; Coating 8: 10 ml of DI/water+4 ml of ethanol+5 ml of 1M HCl.

[2] = Solubility of VN peptide in ethanol; type: physicochemical; settings: 100% 200-proof ethanol, 0.5 mM or 1 mM, after agitation
Experimental: iii) Preparation of VN peptide coating solution: A 10 mL 0.5 mM or 1 mM VN coating solution was prepared by weighing out their corresponding masses and dissolving using a 100% 200-proof ethanol as the solvent.

H7 cells [3] = test: H7 cell count and morphology on gamma sterilized VN peptide acrylate surface after amino acid absorption; type: cell-based, human; settings: 0.1M absorbed 1 hr, gamma 11-18 kGy
Text: (§1) Acrylate coating: 2-Hydroxyethyl methacryalte, 2-carboxyethyl acrylate, tetra(ethylene glycol) dimethacrylate, Darocur 1173, Irgacure 819 were mixed with ratio of 80:20:3:3:0.1 and dissolved in ethanol at total monomer concentration of 5%. The obtained formulation was spin coated on oxygen plasma treated Zeonor film. After ethanol evaporated, the (meth)acrylate coating was cured using Xenon pulsed UV curing system in nitrogen purged box. Then, the coated films were in-mold-labeled into T-75 Zeonor flasks and used for conjugation directly.
(§2) Peptide conjugation: The acrylate surface was activated for an hour with 1:1 EDC: NHS in DMF. After aspiration of the activation solution, the surface was treated for an hour with 1 mM of the VN peptide (Ac-[…]) (SEQ ID NO:1) in phosphate buffer (pH7.4). After aspiration of the peptide solution, the surface was treated for an hour with 1M ethanolamine adjusted to pH 8.0-8.5 with hydrochloric acid or 0.1M of L-methionine methyl ester hydrochloride adjusted to pH 8 with sodium hydroxide based on experimental design. All reactions were performed at room temperature.
Amino acid absorption: Peptide conjugated T-75 flask was filled with 10 mL of 0.1M of L-methionine methyl ester hydrochloride adjusted to pH 8 with sodium hydroxide. The flasks were lay flat so that the peptide surfaces were submerged under the amino acid solution and were incubated for 1 hr. This allows positive charged amino acid to be absorbed into negative charged peptide-acrylate coating. Then the amino acid solution was removed and the flasks were dried in vacuum for overnight before packing and sterilization. […]
Stem cell culture: H7 cells were sub-cultured into T-75 fasks with desired peptide acrylate surfaces or Matrigel™ coated surfaces (positive control) at the density of 100,000 cell/cm^2 in X-VIVO 10+GF medium. […] Cell number was assessed at day 4 or day 5 by harvesting with collagenase IV/EDTA treatment followed by cell counting with automated cell number/viability analyzer, Vi-Cell (Beckman Coulter). […]

H7 cells [4] = test: Crystal violet staining of H7 cells on gamma sterilized VN peptide acrylate surface, amino acid blocking; type: cell-based, human; settings: gamma irradiated; for H7 attachment and growth (crystal violet staining): used as blocking reagent after peptide conjugation
Text: as §1, §2
Sterilization: Flasks were packed with nitrogen and desiccant in aluminum pouch for Gamma sterilization. The irradiation dose was 11-18 kGy. Positive control VN-peptide acrylate sample was sanitized with 70% ethanol.
Stem cell culture: H7 cells were sub-cultured into T-75 fasks with desired peptide acrylate surfaces or Matrigel™ coated surfaces (positive control) at the density of 100,000 cell/cm^2 in X-VIVO 10+GF medium. Microscopic examination of cell and colony morphology was performed at day 3 or day 4. Cell number was assessed at day 4 or day 5 by harvesting with collagenase IV/EDTA treatment followed by cell counting with automated cell number/viability analyzer, Vi-Cell (Beckman Coulter). For methionine methyl ester treated surface, a step of rinsing with DPBS was applied to remove amino acid extractables before cell culture.

N[C@@H](Cc1c[nH]c2ccccc12)C(=O)O [L-Tryptophan]
solubility in 1M HCl ([1]; 1M HCl): soluble

CCCOC(=O)c1cc(O)c(O)c(O)c1 [n-propyl gallate]
solubility in ethanol [1]: soluble

Ac-KGGPQVTRGDVFTMP-NH2 (C-terminus assumed) [VN peptide]
solubility in the ethanol solvent [2]: partial to almost completely soluble

COC(=O)[C@@H](N)CCSC.Cl [methionine methyl ester, L-methionine methyl ester hydrochloride]
bioactivity of VN-peptide acrylate surface after Gamma irradiation (H7 cells [3]): maintained | stem cell morphology versus positive control (H7 cells [3]): comparable | cell number after 4 days of culture versus ETOH ctr and Matrigel (H7 cells [3]; day 4): comparable | H7 attachment and growth (crystal violet staining) (H7 cells [4]): still support good H7 attachment and growth | cell morphology versus ethanol sanitized surfaces (H7 cells [4]; used as blocking reagent): still not able to much those on ethanol sanitized surfaces

NCCO [ethanolamine, reference compound]
H7 attachment and growth (crystal violet staining) (H7 cells [4]): there were not cells attached or grew

Cc1c(C)c2c(c(C)c1O)CCC(C)(C(=O)O)O2 (stereo not shown) [Trolox]
solubility in ethanol [1]: soluble
